In ChEMBL document CHEMBL1201862, “PubChem BioAssay data set” (2004):
Calls of active or inactive are those of the source.

How the values were obtained:
cells [1] = type: functional, cell-based
cells [2] = type: functional, cell-based; remark: listed apart in the source
cells [3] = type: functional, cell-based; remark: listed apart in the source
[4] = biological target: Nuclear receptor subfamily 0 group B member 1 (Homo sapiens, UniProt P51843); type: functional, cell-based;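 note: HEK293T cells transfected with SF-1 and DAX-1 plus StAR promoter luciferase reporter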
[5] = viability of HCT116 lacking mutant beta-catenin – cell-based, human colon tumor, dose response (AID 1045); type: functional;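 note: HCT116 colon tumor cells with beta catenin knocked out; cells exposed to compound for 60 hours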
[6] = viability of PTEN-deleted HCT116 cells – cell-based, HCT116 PTEN knockout, dose response (AID 1047); type: functional;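 note: HCT116 colon tumor cells with PTEN knocked out; cells exposed to compound for 60 hours before readout; potency for loss of cell viability measured by luminescence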
[7] = biological target: T1, Calpain-2 catalytic subunit (Sus scrofa, UniProt P43367); test: m-calpain protease blockers, concentration series – biochemical, fluorogenic peptide substrate, dose response (AID 1420); type: functional
T1 sequence (P43367 whole entry): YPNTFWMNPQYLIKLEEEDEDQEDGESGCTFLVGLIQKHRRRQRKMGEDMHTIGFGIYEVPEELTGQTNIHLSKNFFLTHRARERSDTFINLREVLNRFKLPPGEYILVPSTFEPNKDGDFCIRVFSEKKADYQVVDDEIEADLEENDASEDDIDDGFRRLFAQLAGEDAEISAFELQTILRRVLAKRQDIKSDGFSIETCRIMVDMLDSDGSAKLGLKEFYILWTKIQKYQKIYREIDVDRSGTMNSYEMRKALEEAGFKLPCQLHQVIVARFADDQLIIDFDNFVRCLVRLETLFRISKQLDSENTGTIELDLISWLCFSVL

[8] = Trypanosoma cruzi growth suppression in host cells – NIH3T3 host cells, beta-gal luminescence, confirmation (AID 2044); type: functional, cell-based;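 note: intracellular parasites grown in NIH/3T3 mouse fibroblasts as host cells; luminescent beta-galactosidase reporter signal from transgenic T. cruzi replicating inside host cells; inhibitors lower the luminescence signal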
[9] = tested on: Streptococcus sp. 'group A'; test: Streptococcus pyogenes SK(-)GAS viability under kanamycin – luminescence, BacTiterGlo, confirmation, counter-screen for streptokinase expression inhibitor project, dose response (AID 1900); type: functional, organism-based
Cytochrome P450 1A2 = biological target: T2, Cytochrome P450 1A2 (Homo sapiens, UniProt P05177);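 note: PubChem cytochrome P450 panel assay, CYP1A2 panel member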
T2 sequence (P05177 whole entry): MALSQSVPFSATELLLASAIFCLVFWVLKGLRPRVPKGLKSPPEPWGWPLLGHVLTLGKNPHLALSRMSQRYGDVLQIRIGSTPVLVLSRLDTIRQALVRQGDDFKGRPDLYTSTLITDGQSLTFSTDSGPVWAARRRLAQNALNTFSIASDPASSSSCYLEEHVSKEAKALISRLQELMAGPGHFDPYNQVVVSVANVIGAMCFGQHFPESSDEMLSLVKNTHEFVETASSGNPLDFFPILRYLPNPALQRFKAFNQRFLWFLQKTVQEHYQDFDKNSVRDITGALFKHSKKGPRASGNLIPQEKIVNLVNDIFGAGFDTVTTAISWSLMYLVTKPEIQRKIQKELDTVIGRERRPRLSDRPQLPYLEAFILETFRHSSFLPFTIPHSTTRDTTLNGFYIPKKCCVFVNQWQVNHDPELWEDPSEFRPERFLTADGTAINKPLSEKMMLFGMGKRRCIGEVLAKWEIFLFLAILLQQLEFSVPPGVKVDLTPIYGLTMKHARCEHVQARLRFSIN

[10] = NIH3T3 cell viability loss – ATP luminescence, mouse fibroblasts, counter-screen, dose response (AID 2010); type: functional, cell-based;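 note: cells exposed to compound for about 90 hours before reading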
[11] = biological target: T3, Methionyl-tRNA synthetase, putative (Trypanosoma brucei brucei, UniProt Q38C91); type: functional, Trypanosoma brucei brucei strain 927/4 GUTat10.1
Streptococcus = test: GAS UMAA2166 growth inhibition – luminescence, BacTiterGlo, counter-screen for streptokinase expression inhibitor project, dose response (AID 1915); type: functional, organism-based;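 note: potency for reduction of bacterial viability or growth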
Streptokinase A = biological target: T4, Streptokinase A (Streptococcus pyogenes serotype M1, UniProt P10520); test: viability-normalized secreted streptokinase activity reduction – plasminogen activation absorbance, OD405, dose response (AID 1914); type: functional, Streptococcus pyogenes M1 GAS;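 note: secreted streptokinase activity via plasminogen activation per viability signal from cell pellet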
T4 sequence (P10520 whole entry): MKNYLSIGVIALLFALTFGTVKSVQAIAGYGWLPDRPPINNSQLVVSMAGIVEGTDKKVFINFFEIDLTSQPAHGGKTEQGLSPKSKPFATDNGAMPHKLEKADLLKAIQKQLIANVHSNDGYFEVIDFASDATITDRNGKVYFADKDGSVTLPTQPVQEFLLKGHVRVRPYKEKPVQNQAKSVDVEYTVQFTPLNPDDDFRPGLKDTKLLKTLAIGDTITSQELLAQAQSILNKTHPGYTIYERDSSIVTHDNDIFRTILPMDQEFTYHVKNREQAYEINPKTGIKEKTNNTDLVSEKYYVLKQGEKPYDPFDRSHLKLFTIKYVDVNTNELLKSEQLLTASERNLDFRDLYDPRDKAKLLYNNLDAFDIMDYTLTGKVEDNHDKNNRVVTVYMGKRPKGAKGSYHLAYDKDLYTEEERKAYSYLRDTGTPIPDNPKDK

[12] = Counterscreen for inhibitors of Trypanosoma brucei methionyl tRNA synthetase (MetRS): Luminescence-based cell-based high throughput dose response assay to identify compounds that are cytotoxic to Jurkat human T lymphocyte cells.; type: functional
[13] = biological target: T3, Methionyl-tRNA synthetase, putative; type: functional, Trypanosoma brucei brucei strain 927/4 GUTat10.1; remark: listed apart in the source
Beta-lactamase [14] = biological target: Beta-lactamase (Salmonella choleraesuis (strain SC-B67), UniProt Q5J463); test: Epi-absorbance-based counterscreen for selective VIM-2 inhibitors: dose response biochemical high throughput screening assay to identify inhibitors of TEM-1 serine-beta-lactamase.
Beta-lactamase [15] = biological target: T5, Beta-lactamase (Pseudomonas aeruginosa, UniProt Q79MP6); test: inhibition of IMP-1 beta-lactamase activity – biochemical, epi-absorbance, selectivity assay for VIM-2 inhibitor project, dose response (AID 1920)
Beta-lactamase [16] = biological target: T5, Beta-lactamase; test: […] counterscreen for selective VIM-2 inhibitors: dose response biochemical high throughput screening assay to identify inhibitors of IMP-1 metallo-beta-lactamase.
[17] = biological target: Luciferin 4-monooxygenase (Photinus pyralis, UniProt P08659); test: inhibition of purified Photinus pyralis luciferase – biochemical, luminescence, dose response (AID 1891)
Galanin receptor type 3 = Galanin receptor type 3 (Homo sapiens, UniProt O60755); test: Fluorescence-based cell-based primary high throughput dose response assay to identify antagonists of the Galanin Receptor 3 (GalR3).; type: functional
cells [18] = type: functional, cell-based; conditions: HEK-CNG
[19] = Luminescence Cell-Based Dose Confirmation HTS to Identify Inhibitors of Platelet Dense Granule Release. [Related pubchem assays: 1663 (Primary HTS), 1678 (Summary of Project)]; type: functional
[20] = biological target: T6, Beta-2 adrenergic receptor (Homo sapiens, UniProt P07550); test: ADRB2 activation measured by internalization – cell-based, FAP fluorogen, flow cytometry, cherry pick 1, dose response (AID 588763); type: functional
[21] = biological target: T6, Beta-2 adrenergic receptor; test: Dose response for HTS for Beta-2AR agonists via FAP method from Powderset3.; type: functional
[22] = Counterscreen for […] of the human trace amine associated receptor 1 (TAAR1): Fluorescence-based cell-based high throughput dose response assay to identify nonselective Ga16 agonists.; type: functional
[23] = biological target: T7, Trace amine-associated receptor 1 (Homo sapiens, UniProt Q96RJ0); test: Fluorescence-based cell-based high throughput dose response assay to identify antagonists of the human trace amine associated receptor 1 (TAAR1).; type: functional
T7 sequence (Q96RJ0 whole entry): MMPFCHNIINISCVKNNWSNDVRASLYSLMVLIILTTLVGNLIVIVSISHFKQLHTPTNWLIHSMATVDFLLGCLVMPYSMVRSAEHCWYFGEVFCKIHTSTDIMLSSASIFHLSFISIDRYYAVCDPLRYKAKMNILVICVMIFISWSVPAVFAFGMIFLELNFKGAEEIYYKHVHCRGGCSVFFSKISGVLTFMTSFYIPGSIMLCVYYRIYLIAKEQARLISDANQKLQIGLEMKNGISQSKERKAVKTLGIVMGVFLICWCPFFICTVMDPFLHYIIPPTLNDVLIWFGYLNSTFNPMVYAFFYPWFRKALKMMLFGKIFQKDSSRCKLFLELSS

H9c2 = test: cells; type: functional, cell-based; conditions: Rattus norvegicus, H9c2, Myocardium;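 note: confirmatory concentration-response retest of ultra-high-throughput screening hits for modulation of myocardial damage; cell death induced by hydrogen peroxide oxidative stress; compound pretreatment for 60 min then peroxide exposure for 2 h; potency is for protecting the cells against peroxide damage rather than for killing them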
[24] = Counterscreen for antagonists of the human trace amine associated receptor 1 (hTAAR1): Fluorescence-based cell-based high throughput dose response assay to identify nonselective Ga16 antagonists.; type: functional
[25] = biological target: T7, Trace amine-associated receptor 1; test: Counterscreen for antagonists of the human trace amine associated receptor 1 (hTAAR1): Fluorescence-based cell-based high throughput dose response assay to identify TAAR1 Agonists.; type: functional
Beta-galactosidase = Beta-galactosidase (Escherichia coli, UniProt Q8VNN2); test: Dose response counterscreen for EBI2 assay utilizing the enzyme, b-galactosidase.; type: functional
Chain of Beta-galactosidase (Q8VNN2 whole entry): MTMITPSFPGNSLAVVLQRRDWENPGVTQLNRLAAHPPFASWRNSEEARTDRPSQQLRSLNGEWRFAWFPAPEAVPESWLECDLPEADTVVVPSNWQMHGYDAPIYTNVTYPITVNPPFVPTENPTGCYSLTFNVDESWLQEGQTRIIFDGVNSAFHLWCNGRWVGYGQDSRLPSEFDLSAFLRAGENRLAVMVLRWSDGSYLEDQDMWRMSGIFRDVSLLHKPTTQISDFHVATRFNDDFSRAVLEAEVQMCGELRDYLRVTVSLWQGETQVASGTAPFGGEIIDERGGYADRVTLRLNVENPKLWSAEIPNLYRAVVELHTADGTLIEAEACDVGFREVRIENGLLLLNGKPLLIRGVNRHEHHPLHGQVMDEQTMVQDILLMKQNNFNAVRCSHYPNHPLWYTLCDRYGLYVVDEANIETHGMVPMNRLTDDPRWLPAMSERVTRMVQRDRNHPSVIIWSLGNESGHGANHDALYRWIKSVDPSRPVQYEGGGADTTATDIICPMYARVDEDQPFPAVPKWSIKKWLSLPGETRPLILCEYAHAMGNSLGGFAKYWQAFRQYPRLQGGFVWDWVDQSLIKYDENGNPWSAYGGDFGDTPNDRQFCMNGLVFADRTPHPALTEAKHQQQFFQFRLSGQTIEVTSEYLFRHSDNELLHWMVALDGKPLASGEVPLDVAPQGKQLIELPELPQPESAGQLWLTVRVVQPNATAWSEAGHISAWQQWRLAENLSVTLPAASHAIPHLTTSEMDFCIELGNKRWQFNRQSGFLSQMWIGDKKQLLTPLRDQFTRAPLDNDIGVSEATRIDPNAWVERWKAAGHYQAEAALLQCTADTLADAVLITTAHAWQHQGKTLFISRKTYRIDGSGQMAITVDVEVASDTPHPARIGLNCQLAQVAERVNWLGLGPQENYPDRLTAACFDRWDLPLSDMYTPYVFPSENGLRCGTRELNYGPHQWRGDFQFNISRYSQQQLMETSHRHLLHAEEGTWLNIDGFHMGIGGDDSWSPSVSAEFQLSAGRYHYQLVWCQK

T3 sequence (Q38C91 whole entry): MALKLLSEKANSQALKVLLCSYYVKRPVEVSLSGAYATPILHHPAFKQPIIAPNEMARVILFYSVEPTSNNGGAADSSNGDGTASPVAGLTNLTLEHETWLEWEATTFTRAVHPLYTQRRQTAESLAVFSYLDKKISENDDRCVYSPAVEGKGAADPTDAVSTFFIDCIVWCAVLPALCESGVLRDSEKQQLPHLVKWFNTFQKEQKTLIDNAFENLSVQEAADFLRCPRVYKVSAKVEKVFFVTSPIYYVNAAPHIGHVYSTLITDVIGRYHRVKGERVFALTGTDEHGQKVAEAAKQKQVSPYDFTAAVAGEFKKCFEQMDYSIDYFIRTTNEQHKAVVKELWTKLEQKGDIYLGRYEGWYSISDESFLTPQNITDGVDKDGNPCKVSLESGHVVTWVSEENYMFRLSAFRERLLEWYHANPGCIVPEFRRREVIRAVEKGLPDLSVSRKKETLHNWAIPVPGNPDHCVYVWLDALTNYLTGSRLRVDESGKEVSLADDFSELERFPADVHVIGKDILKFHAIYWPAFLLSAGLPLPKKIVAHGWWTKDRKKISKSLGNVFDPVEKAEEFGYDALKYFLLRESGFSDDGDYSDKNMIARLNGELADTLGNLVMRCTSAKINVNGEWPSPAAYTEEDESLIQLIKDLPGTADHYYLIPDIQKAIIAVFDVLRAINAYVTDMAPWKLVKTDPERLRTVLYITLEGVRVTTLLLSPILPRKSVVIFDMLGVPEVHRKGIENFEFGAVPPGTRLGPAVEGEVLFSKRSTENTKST
T5 sequence (Q79MP6 whole entry): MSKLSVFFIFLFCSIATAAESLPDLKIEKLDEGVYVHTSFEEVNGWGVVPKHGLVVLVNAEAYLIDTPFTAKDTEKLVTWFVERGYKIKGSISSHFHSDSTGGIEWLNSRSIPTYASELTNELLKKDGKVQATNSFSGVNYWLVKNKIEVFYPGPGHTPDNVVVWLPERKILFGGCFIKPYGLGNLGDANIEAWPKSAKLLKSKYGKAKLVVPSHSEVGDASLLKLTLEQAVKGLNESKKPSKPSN
T6 sequence (P07550 whole entry): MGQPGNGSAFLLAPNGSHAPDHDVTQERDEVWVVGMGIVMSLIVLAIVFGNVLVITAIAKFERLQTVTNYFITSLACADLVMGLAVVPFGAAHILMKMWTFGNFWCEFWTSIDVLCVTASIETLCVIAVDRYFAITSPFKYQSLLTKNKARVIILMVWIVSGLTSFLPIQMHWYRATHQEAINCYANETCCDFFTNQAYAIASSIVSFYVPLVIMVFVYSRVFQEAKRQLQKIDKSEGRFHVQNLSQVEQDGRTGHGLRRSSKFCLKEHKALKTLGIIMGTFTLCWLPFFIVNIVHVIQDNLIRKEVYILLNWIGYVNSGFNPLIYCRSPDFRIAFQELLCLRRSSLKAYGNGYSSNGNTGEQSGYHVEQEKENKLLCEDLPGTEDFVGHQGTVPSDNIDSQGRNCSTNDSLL
Chain of Nuclear receptor subfamily 0 group B member 1 (P51843 whole entry): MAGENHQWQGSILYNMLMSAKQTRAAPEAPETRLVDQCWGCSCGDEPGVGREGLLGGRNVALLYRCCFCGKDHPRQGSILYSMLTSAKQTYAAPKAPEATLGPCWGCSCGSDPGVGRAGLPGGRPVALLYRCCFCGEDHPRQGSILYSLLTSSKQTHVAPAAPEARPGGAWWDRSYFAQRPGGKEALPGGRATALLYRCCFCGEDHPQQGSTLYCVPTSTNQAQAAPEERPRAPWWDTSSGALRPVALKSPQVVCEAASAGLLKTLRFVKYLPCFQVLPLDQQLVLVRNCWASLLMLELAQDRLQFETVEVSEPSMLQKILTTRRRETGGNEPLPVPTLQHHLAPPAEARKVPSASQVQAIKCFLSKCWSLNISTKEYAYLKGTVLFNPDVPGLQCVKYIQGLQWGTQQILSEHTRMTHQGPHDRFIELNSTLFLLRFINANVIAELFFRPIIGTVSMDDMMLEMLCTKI
Chain of Beta-lactamase (Salmonella choleraesuis (strain SC-B67), UniProt Q5J463) (Q5J463 whole entry): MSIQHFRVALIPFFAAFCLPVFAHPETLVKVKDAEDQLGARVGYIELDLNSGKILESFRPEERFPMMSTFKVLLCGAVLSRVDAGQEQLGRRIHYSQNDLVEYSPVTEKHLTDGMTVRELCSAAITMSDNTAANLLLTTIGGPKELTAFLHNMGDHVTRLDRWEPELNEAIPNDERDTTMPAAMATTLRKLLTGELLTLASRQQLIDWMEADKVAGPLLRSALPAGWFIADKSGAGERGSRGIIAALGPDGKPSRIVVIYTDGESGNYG
Chain of Galanin receptor type 3 (O60755 whole entry): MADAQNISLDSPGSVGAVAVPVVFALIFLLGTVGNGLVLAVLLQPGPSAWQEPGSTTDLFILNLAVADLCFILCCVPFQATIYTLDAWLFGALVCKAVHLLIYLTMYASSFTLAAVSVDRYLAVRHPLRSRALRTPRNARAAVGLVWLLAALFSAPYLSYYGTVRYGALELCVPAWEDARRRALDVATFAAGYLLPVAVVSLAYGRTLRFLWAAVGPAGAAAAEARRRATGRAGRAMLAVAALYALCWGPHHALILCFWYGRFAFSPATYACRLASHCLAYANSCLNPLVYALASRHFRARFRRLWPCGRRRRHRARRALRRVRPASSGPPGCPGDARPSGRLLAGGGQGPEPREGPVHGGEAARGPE
Chain of Luciferin 4-monooxygenase (P08659 whole entry): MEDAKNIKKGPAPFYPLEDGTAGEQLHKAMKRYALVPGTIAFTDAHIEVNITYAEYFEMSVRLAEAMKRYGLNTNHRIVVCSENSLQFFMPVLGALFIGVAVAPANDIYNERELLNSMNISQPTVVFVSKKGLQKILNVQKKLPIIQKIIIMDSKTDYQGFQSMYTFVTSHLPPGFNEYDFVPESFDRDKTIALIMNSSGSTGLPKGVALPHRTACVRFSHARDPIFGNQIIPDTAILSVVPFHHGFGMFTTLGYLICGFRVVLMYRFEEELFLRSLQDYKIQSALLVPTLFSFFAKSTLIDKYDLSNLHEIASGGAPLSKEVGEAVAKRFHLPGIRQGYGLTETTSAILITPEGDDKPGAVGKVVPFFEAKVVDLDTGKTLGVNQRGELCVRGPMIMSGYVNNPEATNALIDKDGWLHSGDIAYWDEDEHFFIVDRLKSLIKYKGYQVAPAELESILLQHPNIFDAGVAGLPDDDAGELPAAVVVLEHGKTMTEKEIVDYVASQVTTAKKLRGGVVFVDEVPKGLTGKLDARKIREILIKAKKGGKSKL

With `Cc1cc(C)c2nc(N3CCN(C(=O)c4ccco4)CC3)sc2c1` the EC50 (cells [1]) was 55.3 µM (active), the IC50 (cells [2]) was > 67.5 µM (inactive) and the EC50 (cells [3]) was > 350 µM (not active). The IC50 [4] was > 67.5 µM (inactive).
For `CCN1C(=O)C(CC(=O)Nc2ccc(Br)cc2)N(CCCc2ccccc2)C1=S` (stereo unspecified), the EC50 [5] was 16.1 µM (active), the EC50 [6] was 15.3 µM (active) and the IC50 [7] was 5.99 µM (not active). For the same compound, the EC50 [8] was 2.31 µM (active), the EC50 [9] was 3.15 µM (active) and the AC50 (Cytochrome P450 1A2) was 14.1 µM (inconclusive). The EC50 [10] was > 60 µM (not active), the IC50 [11] was 6.6 µM (active) and the EC50 (Streptococcus) was 6.98 µM (active). For the same compound, the EC50 (Streptokinase A) was 1.98 µM (active), the IC50 [12] was 41.5 µM (inactive) and the IC50 [13] was 5.93 µM (active).
With `O=C(CSc1nnc(NC(=O)c2ccccc2[N+](=O)[O-])s1)NCc1ccco1` the IC50 (Beta-lactamase [14]) was > 59.6 µM (inactive), the IC50 (Beta-lactamase [15]) was > 59.6 µM (inactive) and the IC50 (Beta-lactamase [16]) was > 59.6 µM (inactive).
With `CC1CC(=O)NN=C1c1ccc(N(C)C)c([N+](=O)[O-])c1` (stereo unspecified) the EC50 [17] was > 112 µM (not active), the IC50 (Galanin receptor type 3) was 1.72 µM (active) and the EC50 (cells [18]) was > 29.9 µM (inactive). For the same compound, the EC50 [19] was 0.149 µM (active).
In the case of `C=CCn1c(CCNC(=O)c2cccs2)nnc1SCC(=O)c1ccc(Cl)cc1`, the EC50 [20] is reported as 0.167 µM (active) and the EC50 [21] is reported as 0.00153 µM (active).
In the case of `CN1C(=O)CSc2ccc(NC(=O)Nc3ccccn3)cc21`, the EC50 [22] is reported as > 29.9 µM (inactive), the IC50 [23] is reported as 5.8 µM (active) and the IC50 (H9c2) is reported as 49 µM (inactive). For the same compound, the IC50 [24] was > 29.9 µM (inactive) and the EC50 [25] was > 29.9 µM (inactive).
For `COc1ccc(NC(=O)c2ccc(OC(=S)N(C)c3ccc(OC)cc3)cc2)cc1`, the IC50 (Beta-galactosidase) was > 80 µM (inactive).
